Results reported in PMC11995724, “Antibiotic target discovery by integrated phenotypic and activity-based profiling of electrophilic fragments” (Cell chemical biology, 2025).

Experiment: in vitro
Details: human, hek293t cells

SMILES	viability at 48 h, 25 µM [%]
C=CC(=O)NC[C@@H]1C=C[C@H]2C[C@@H]1CO2 (racemic) [1-I03, rac-N-{[(1R,2S,5S)-6-oxabicyclo[3.2.1]oct-3-en-2-yl]methyl}prop-2-enamide]	78.1
C=CC(=O)N(Cc1cc2cccc(OC)c2o1)[C@@H]1C[C@H]2CC[C@@H]1O2 (racemic) [1-J13, rac-N-[(7-methoxy-1-benzofuran-2-yl)methyl]-N-[(1R,2S,4S)-7-oxabicyclo[2.2.1]heptan-2-yl]prop-2-enamide]	172
C=CC(=O)N(C)CC(=O)N1CCC[C@H](NC(=O)C(F)(F)F)[C@@H]1C (racemic) [2-A20, rac-N-methyl-N-{2-[(2R,3R)-2-methyl-3-(2,2,2-trifluoroacetamido)piperidin-1-yl]-2-oxoethyl}prop-2-enamide]	96
C=CC(=O)N1CCC(C(=O)N[C@H]2CCO[C@H](c3ccccn3)C2)CC1 (racemic) [2-G15, rac-1-(prop-2-enoyl)-N-[(2R,4R)-2-(pyridin-2-yl)oxan-4-yl]piperidine-4-carboxamide]	66.9
C=CC(=O)N[C@H]1CCCC[C@H]1c1ccnn1C (racemic) [2-G18, rac-N-[(1R,2S)-2-(1-methyl-1H-pyrazol-5-yl)cyclohexyl]prop-2-enamide]	103
C=CC(=O)N1CCC(C(=O)N[C@H]2CCO[C@@H]2c2cccnc2)CC1 (racemic) [2-G20, rac-1-(prop-2-enoyl)-N-[(2R,3S)-2-(pyridin-3-yl)oxolan-3-yl]piperidine-4-carboxamide]	92.2
C=CC(=O)N1CCC(C(=O)N[C@H]2CC[C@@H](CC#N)C2)CC1 (racemic) [2-G21, rac-N-[(1R,3S)-3-(cyanomethyl)cyclopentyl]-1-(prop-2-enoyl)piperidine-4-carboxamide]	71.9
C=CC(=O)N1CCC(C(=O)N[C@H]2CCCCCC[C@H]2C(=O)OC)CC1 (racemic) [2-H06, rac-methyl (1R,2S)-2-[1-(prop-2-enoyl)piperidine-4-amido]cyclooctane-1-carboxylate]	94.4
C=CC(=O)N1CCC(C(=O)N[C@@H]2CC[C@H](O)C2)(c2ccccc2)CC1 (racemic) [2-H16, rac-N-[(1R,3S)-3-hydroxycyclopentyl]-4-phenyl-1-(prop-2-enoyl)piperidine-4-carboxamide]	59.9
C=CC(=O)N1C[C@H](NC(C)=O)[C@@H](c2ccnn2C)C1 (racemic) [2-M16, rac-N-[(3R,4S)-4-(1-methyl-1H-pyrazol-5-yl)-1-(prop-2-enoyl)pyrrolidin-3-yl]acetamide]	96
C=CC(=O)Nc1ccc(C(=O)N[C@H]2COC[C@@H]2OC)cc1 (racemic) [3-C08, rac-N-[(3R,4S)-4-methoxyoxolan-3-yl]-4-(prop-2-enamido)benzamide]	85.1
C=CC(=O)N(C)[C@H]1CS(=O)(=O)C[C@@H]1O (racemic) [3-C15, rac-N-[(3R,4R)-4-hydroxy-1,1-dioxo-1lambda6-thiolan-3-yl]-N-methylprop-2-enamide]	46
C=CC(=O)N1CCC(C(=O)N[C@H]2CC[C@@H]2O)(c2ccccc2)CC1 (racemic) [3-G08, rac-N-[(1R,2R)-2-hydroxycyclobutyl]-4-phenyl-1-(prop-2-enoyl)piperidine-4-carboxamide]	104
C=CC(=O)N[C@H]1CCO[C@@H]1c1ccnn1C(C)C (racemic) [3-K05, rac-N-[(2R,3R)-2-[1-(propan-2-yl)-1H-pyrazol-5-yl]oxolan-3-yl]prop-2-enamide]	52.7
COCc1nnc([C@]23CC[C@H]2CCN3C(=O)C(C)Cl)o1 (mixture of isomers) [5-H15, rac-2-chloro-1-[(1R,5R)-1-[5-(methoxymethyl)-1,3,4-oxadiazol-2-yl]-2-azabicyclo[3.2.0]heptan-2-yl]propan-1-one]	108
CC(C)N1C(=O)C[C@H](NC(=O)CCl)[C@H]1c1ccc(Cl)c(F)c1 (racemic) [5-I11, rac-2-chloro-N-[(2R,3S)-2-(4-chloro-3-fluorophenyl)-5-oxo-1-(propan-2-yl)pyrrolidin-3-yl]acetamide]	0.807
CC(Cl)C(=O)N[C@H]1CCC(=O)N[C@@H]1c1ccnn1C (mixture of isomers) [6-B14, rac-2-chloro-N-[(2R,3R)-2-(1-methyl-1H-pyrazol-5-yl)-6-oxopiperidin-3-yl]propanamide]	92.4
CCN1C(=O)CC[C@H](CNC(=O)C(C)Cl)[C@H]1c1cnn(C)c1 (mixture of isomers) [6-L13, rac-2-chloro-N-{[(2R,3S)-1-ethyl-2-(1-methyl-1H-pyrazol-4-yl)-6-oxopiperidin-3-yl]methyl}propanamide]	100
CC(Cl)C(=O)NC[C@H]1CCCN(C2CC2)[C@@H]1c1ccnn1C (mixture of isomers) [6-P20, rac-2-chloro-N-{[(2R,3S)-1-cyclopropyl-2-(1-methyl-1H-pyrazol-5-yl)piperidin-3-yl]methyl}propanamide]	101
CC(Cl)C(=O)N[C@H]1CCO[C@@H]1c1nccn1-c1ccccc1 (mixture of isomers) [7-A12, rac-2-chloro-N-[(2R,3R)-2-(1-phenyl-1H-imidazol-2-yl)oxolan-3-yl]propanamide]	93.1
CC(Cl)C(=O)N1C[C@@H]2CCC[C@@]2(c2nc(-c3cnccn3)no2)C1 (mixture of isomers) [7-C03, rac-1-[(3aR,6aR)-3a-[3-(pyrazin-2-yl)-1,2,4-oxadiazol-5-yl]-octahydrocyclopenta[c]pyrrol-2-yl]-2-chloropropan-1-one]	113
CC(Cl)C(=O)N[C@H]1C[C@@H]1c1cnn(-c2ccccc2)c1 (mixture of isomers) [7-M08, rac-2-chloro-N-[(1R,2S)-2-(1-phenyl-1H-pyrazol-4-yl)cyclopropyl]propanamide]	76.7
CC(Cl)C(=O)N[C@H]1CN(Cc2ccccc2)C[C@@H]1c1ccccc1 (mixture of isomers) [7-N09, rac-N-[(3R,4S)-1-benzyl-4-phenylpyrrolidin-3-yl]-2-chloropropanamide]	88.2

SMILES	viability at 48 h, 25 µM [%]
COC(=O)[C@H]1[C@@H](C(=O)CCl)C1(C)C (racemic) [10-A11, rac-methyl (1R,3S)-3-(2-chloroacetyl)-2,2-dimethylcyclopropane-1-carboxylate]	74.8
CC(C)(C)OC(=O)[C@H]1C[C@@H]1C(=O)CCl (racemic) [10-C13, rac-tert-butyl (1R,2R)-2-(2-chloroacetyl)cyclopropane-1-carboxylate]	1.62
C=CC(=O)NCC1CCN(S(=O)(=O)C(F)(F)F)CC1 [1-A03, N-[(1-trifluoromethanesulfonylpiperidin-4-yl)methyl]prop-2-enamide]	83.3
C=CC(=O)Nc1ccoc1C(=O)c1ccc(C)cc1 [1-A04, N-[2-(4-methylbenzoyl)furan-3-yl]prop-2-enamide]	0.123
C=CC(=O)NC1(c2ncon2)CC1 [1-A05, N-[1-(1,2,4-oxadiazol-3-yl)cyclopropyl]prop-2-enamide]	68.7
C=CC(=O)NCC1CCC2(CCCC2)O1 (stereo not shown) [1-A06, N-({1-oxaspiro[4.4]nonan-2-yl}methyl)prop-2-enamide]	106
C=CC(=O)NCC1CCN(C2CC2)CC1 [1-A07, N-[(1-cyclopropylpiperidin-4-yl)methyl]prop-2-enamide]	80.2
C=CC(=O)NC1CCCN(c2cc(N3CCOCC3)ncn2)C1 (stereo not shown) [1-A08, N-{1-[6-(morpholin-4-yl)pyrimidin-4-yl]piperidin-3-yl}prop-2-enamide]	103
C=CC(=O)N1CC(C(N)=O)Oc2ccccc21 (stereo not shown) [1-A09, 4-(prop-2-enoyl)-3,4-dihydro-2H-1,4-benzoxazine-2-carboxamide]	24.7
C=CC(=O)N(CC)c1cccc(C)c1 [1-A10, N-ethyl-N-(3-methylphenyl)prop-2-enamide]	76.6
C=CC(=O)Nc1cnn(CC(F)(F)F)c1 [1-A11, N-[1-(2,2,2-trifluoroethyl)-1H-pyrazol-4-yl]prop-2-enamide]	91.8
C=CC(=O)Nc1cc(C(=O)O)ccc1O [1-A12, 4-hydroxy-3-(prop-2-enamido)benzoic acid]	75.1
C=CC(=O)NCCc1csc(-c2ccccc2)n1 [1-A13, N-[2-(2-phenyl-1,3-thiazol-4-yl)ethyl]prop-2-enamide]	88.5
C=CC(=O)NC1CCc2ccccc21 (stereo not shown) [1-A14, N-(2,3-dihydro-1H-inden-1-yl)prop-2-enamide]	107
C=CC(=O)Nc1cc(S(=O)(=O)N2CCCCCC2)ccc1OC [1-A15, N-[5-(azepane-1-sulfonyl)-2-methoxyphenyl]prop-2-enamide]	1.58
C=CC(=O)Nc1cccc(-c2nnnn2C(C)C)c1 [1-A16, N-{3-[1-(propan-2-yl)-1H-1,2,3,4-tetrazol-5-yl]phenyl}prop-2-enamide]	98.3
C=CC(=O)NCC1(c2ccccc2Cl)CCCCC1 [1-A17, N-{[1-(2-chlorophenyl)cyclohexyl]methyl}prop-2-enamide]	64.2
C=CC(=O)Nc1ccccc1CCC(N)=O [1-A18, N-[2-(2-carbamoylethyl)phenyl]prop-2-enamide]	125
C=CC(=O)Nc1ccccc1CCSC [1-A19, N-{2-[2-(methylsulfanyl)ethyl]phenyl}prop-2-enamide]	93.5
C=CC(=O)NC(C)(Cn1cccn1)C(N)=O (stereo not shown) [1-A20, N-{1-carbamoyl-1-[(1H-pyrazol-1-yl)methyl]ethyl}prop-2-enamide]	113
C=CC(=O)NCc1cc(-c2ccco2)on1 [1-A21, N-{[5-(furan-2-yl)-1,2-oxazol-3-yl]methyl}prop-2-enamide]	166
C=CC(=O)N1CCCn2cccc2C12CCOCC2 [1-A22, 1-{2',3',4',5'-tetrahydrospiro[oxane-4,1'-pyrrolo[1,2-a][1,4]diazepin]-2'-yl}prop-2-en-1-one]	109
C=CC(=O)NC1CCCN(C(=O)CCC(F)(F)F)C1 (stereo not shown) [1-B03, N-[1-(4,4,4-trifluorobutanoyl)piperidin-3-yl]prop-2-enamide]	108
